Experimental data taken from publication PMC3821045 (Synapse (New York, N.Y.), 2010).
Entries after “also recorded” stand apart in the source; their conditions may differ.

Assays:
Assay type in all cases: cell-based
[1] = target: human D2 dopamine receptors (Homo sapiens, UniProt P14416); assay: Forskolin-dependent adenylyl cyclase inhibition assay
[2] = target: human D3 dopamine receptors (Homo sapiens, UniProt P35462); assay: as above
[3] = target: human D2 receptors expressed in CHO cells (Homo sapiens, UniProt P14416); assay: Mitogenic assay; settings: relative to quinpirole
[4] = target: human D3 receptors expressed in CHO cells (Homo sapiens, UniProt P35462); assay: Mitogenic assay; settings: relative to quinpirole
Sequence of human D3 receptors expressed in CHO cells (P35462 whole entry): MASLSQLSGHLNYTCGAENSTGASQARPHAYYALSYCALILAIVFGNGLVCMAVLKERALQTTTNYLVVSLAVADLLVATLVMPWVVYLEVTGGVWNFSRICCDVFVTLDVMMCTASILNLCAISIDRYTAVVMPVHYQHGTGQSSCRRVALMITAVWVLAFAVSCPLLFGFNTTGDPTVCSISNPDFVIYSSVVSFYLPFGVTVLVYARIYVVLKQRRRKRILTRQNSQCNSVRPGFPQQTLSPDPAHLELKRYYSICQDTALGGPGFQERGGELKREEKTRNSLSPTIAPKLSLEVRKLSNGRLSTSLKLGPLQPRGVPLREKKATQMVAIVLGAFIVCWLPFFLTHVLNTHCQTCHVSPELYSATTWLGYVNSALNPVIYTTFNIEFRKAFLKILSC

Sequence of human D3 dopamine receptors (P35462 whole entry): as above
Sequence of human D2 receptors expressed in CHO cells (P14416 whole entry): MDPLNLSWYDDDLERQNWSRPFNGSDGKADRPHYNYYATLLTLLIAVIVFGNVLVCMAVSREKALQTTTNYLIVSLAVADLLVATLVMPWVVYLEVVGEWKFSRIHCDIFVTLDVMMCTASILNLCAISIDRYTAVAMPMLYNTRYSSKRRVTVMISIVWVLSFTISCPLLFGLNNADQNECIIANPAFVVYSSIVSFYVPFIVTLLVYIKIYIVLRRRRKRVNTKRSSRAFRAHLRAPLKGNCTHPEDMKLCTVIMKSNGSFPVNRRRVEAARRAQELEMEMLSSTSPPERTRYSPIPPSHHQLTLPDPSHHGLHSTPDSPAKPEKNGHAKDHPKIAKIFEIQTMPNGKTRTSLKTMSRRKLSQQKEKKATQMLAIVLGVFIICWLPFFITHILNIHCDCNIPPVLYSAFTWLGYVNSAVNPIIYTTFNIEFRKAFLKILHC
Sequence of human D2 dopamine receptors (P14416 whole entry): as above

Compound	efficacy in adenylyl cyclase inhibition assay (in words) [1]	efficacy in adenylyl cyclase inhibition assay (in words) [2]	intrinsic efficacy in mitogenic assay (in words) [3]	intrinsic efficacy in mitogenic assay (in words) [4]
O=C(NCCCCN1CCN(c2cccc(Cl)c2Cl)CC1)c1ccc(-c2cccnc2)cc1 [PG01042, N-(4-(4-(2,3-dichlorophenyl)piperazin-1-yl)butyl)-4-(pyridin-3-yl)benzamide]	weak partial agonist	strong agonist; also recorded: almost full agonist	partial mitogenic agonist	partial mitogenic agonist
COc1ccccc1N1CCN(C/C=C/CNC(=O)c2ccc(-c3cccnc3)cc2)CC1 [PG 845, (E)-N-(4-(4-(2-methoxyphenyl)piperazin-1-yl)but-2-enyl)-4-(pyridin-3-yl)benzamide]		greatest efficacy		
COc1ccccc1N1CCN(CCCCNC(=O)c2ccc(-c3cccnc3)cc2)CC1 [PG 848, N-(4-(4-(2-methoxyphenyl)piperazin-1-yl)butyl)-4-(pyridin-3-yl)benzamide]		greatest efficacy	antagonist	antagonist
O=C(NCCCCN1CCN(c2cccc(Cl)c2Cl)CC1)c1ccc(-c2ccccn2)cc1 [CJB090, N-(4-(4-(2,3-dichlorophenyl)piperazin-1-yl)butyl)-4-(pyridin-2-yl)benzamide]	partial agonist	partial agonist	some activity	partial agonist; also recorded: some activity
O=C(NCCCCN1CCN(c2cccc(Cl)c2Cl)CC1)c1ccc2c(c1)Cc1ccccc1-2 [NGB 2904, reference compound]		antagonist		antagonist
